Reference: patent publication US20230374148A1, “BINDING MOLECULES THAT MULTIMERISE CD45” (UCB BIOPHARMA SRL, priority 2020, published 2023)

What was measured:
[1] = tested on: OCI-Ly3; assay: Apoptosis of cell lines: OCI-Ly3; format: cell-based; details: OCI-Ly3, 21 hrs, 500 nM
Text: (§1) The following cell lines representing various leukaemia's and lymphoma's, as classified by ATCC (www.atcc.org/), were used: Jurkat—acute T-cell leukaemia; CCRF-SB—B-cell acute lymphoblastic leukaemia; MC116—B-cell undifferentiated lymphoma; Raji, Ramos—Burkitt lymphoma (rare form of B-cell non-Hodgkin lymphoma); SU-DHL-4, SU-DHL-5, SU-DHL-8, NU-DUL-1, OCI-Ly3—Diffuse large B-cell lymphoma; THP-1—acute monocytic leukaemia; and Dakiki—B cell nasopharyngeal carcinoma.
(§2) Prior to an assay being performed, 1 vial of each of the above cell lines was thawed in a 37° C. water bath and then added to 20 ml complete media (RPMI 1640+2 mM GlutaMAX+1% Pen/Strep, all previous supplied by Invitrogen, +10% Fetal Bovine Serum (FBS), Sigma Aldrich). Cells were spun (500 g, 5 min, at RT) and re-suspended in 20 ml complete media to wash and spun again. Cells were resuspended in 10 ml complete media and then counted using a ChemoMetec NucleoCounter NC-3000. 6×10^6 cells of each cell line were spun (500 g, 5 min, at RT) and re-suspended in 4.8 ml complete media. 1×10^5 cells in 80 μl were then added to each well of a Corning Costar 96-well, cell culture treated, U-shaped-bottom microplate (cat no. 07-200-95). The plate was rested in a 37° C., 5% CO2 incubator for 2 hrs
(§3) Stocks of 4133-6294 BYbe and NegCtrl BYbe at 2500 nM in complete media were prepared. In a Greiner 96-well non-binding microplate, both reagents were serially diluted in complete media 1 in 5, seven times to produce to form an 8-point dose curve. […] (final well concentrations 500-0.0064 nM) was added to the cells. Each concentration was produced in triplicate. Camptothecin (cat no. C9911-100MG, Sigma Aldrich) and Staurosporine (cat no. 56942-200UL, Sigma Aldrich) were added as positive controls of apoptosis. Both were diluted in complete media and added to the well to produce a final concentration of 5 μM. Additional positive controls included anti-thymocyte globulin (ATG, indicated by FDA for use in conditioning regimens), Rituximab (anti-CD20, indicated by FDA for Non-Hodgkin Lymphoma and Chronic Lymphocytic Leukaemia) and Campath (anti-CD52, indicated by FDA for B-cell Chronic Lymphocytic Leukaemia). Anti-thymocyte globulin, Rituximab and Campath were added to the wells to produce final concentrations of 200 μg/ml, 500 nM and 200 μg/ml, respectively. […]
(§4) Following the incubation, the plates were spun at 500 g, 5 min, RT, the buffer was aspirated with a BioTek ELx405 microplate washer, and the cells were re-suspended in FACS buffer (PBS+1% bovine serum albumin (BSA)+0.1% NaN3+2 mM EDTA, Sigma Aldrich) to wash and then re-spun and buffer was aspirated to leave the cells in 20 μl residual media. […] Cells were analysed using the Bio-Rad ZE5 Cell Analyzer. […]

[2] = tested on: SU-DHL-5; assay: Apoptosis of cell lines: SU-DHL-5; format: cell-based; details: SU-DHL-5, 21 hrs, 500 nM
Text: as §1, §2, §3, §4

[3] = tested on: Raji; assay: Apoptosis of cell lines: Raji; format: cell-based; details: 21 hrs, 500 nM
Text: as §1, §2, §3, §4

[4] = tested on: SU-DHL-4; assay: Apoptosis of cell lines: SU-DHL-4; format: cell-based; details: SU-DHL-4, 21 hrs, 500 nM
Text: as §1, §2, §3, §4

[5] = tested on: Ramos; assay: Apoptosis of cell lines: Ramos; format: cell-based; details: 21 hrs, 500 nM
Text: as §1, §2, §3, §4

[6] = tested on: Jurkat; assay: Apoptosis of cell lines: Jurkat; format: cell-based; details: 21 hrs, 500 nM
Text: as §1, §2, §3, §4

[7] = tested on: SU-DHL-8; assay: Apoptosis of cell lines: SU-DHL-8; format: cell-based; details: SU-DHL-8, 21 hrs, 500 nM
Text: as §1, §2, §3, §4

[8] = tested on: NU-DUL-1; assay: Apoptosis of cell lines: NU-DUL-1; format: cell-based; details: NU-DUL-1, 21 hrs, 500 nM
Text: as §1, §2, §3, §4

[9] = tested on: THP-1; assay: Apoptosis of cell lines: THP-1; format: cell-based; details: THP-1, 21 hrs, 500 nM
Text: as §1, §2, §3, §4

[10] = tested on: Dakiki; assay: Apoptosis of cell lines: Dakiki; format: cell-based; details: 21 hrs, 500 nM
Text: as §1, §2, §3, §4

[11] = tested on: MC116; assay: Apoptosis of cell lines: MC116; format: cell-based; details: MC116, 21 hrs, 500 nM
Text: as §1, §2, §3, §4

[12] = tested on: CCRF-SB; assay: Apoptosis of cell lines: CCRF-SB; format: cell-based; details: 21 hrs, 500 nM
Text: as §1, §2, §3, §4

[13] = molecular target: T1, CD45 domains 1-4 of the extracellular domain (UniProtKB P08575, residues 225-573) with C-terminal TEV cleavage site and 10-His tag (human); assay: SPR, Biacore 3000, 25 C; Fab captured by anti-rabbit F(ab)2, CD45 D1-D4 titrated 50 nM to 0.05 nM
[14] = molecular target: T1, CD45 domains 1-4 of the extracellular domain; assay: SPR, Biacore 3000, 25 C; Fab captured by anti-mouse F(ab)2, CD45 D1-D4 titrated 50 nM to 0.05 nM

## Rituximab: anti-CD20, indicated by FDA for Non-Hodgkin Lymphoma and Chronic Lymphocytic Leukaemia; positive control [reference compound]
[1]
  Rituximab mean (%) cell reduction: 19.05%
[2]
  Rituximab mean (%) cell reduction: 61.26%
[3]
  Rituximab mean (%) cell reduction: 87.89%
[4]
  Rituximab mean (%) cell reduction: 79.76%
[5]
  Rituximab mean (%) cell reduction: 91.05%
[6]
  Rituximab mean (%) cell reduction: 6.52%
[7]
  Rituximab mean (%) cell reduction: 15.25%
[8]
  Rituximab mean (%) cell reduction: 87.04%
[9]
  Rituximab mean (%) cell reduction: 23.12%
[10]
  Rituximab mean (%) cell reduction: 58.55%
[11]
  Rituximab mean (%) cell reduction: 98.13%
[12]
  Rituximab mean (%) cell reduction: 59.87%

B1: 4133 rabbit Fab (Fab, V domains shown)
VH: QEQLVESGGGLVQPEGSLTLTCTASGFSFSGNYYMCWVRQAPGKGLEWIGCLYTGSSGSTYYASWAKGRFTISKTSSTTVTLQMTSLTAADTATYFCARDLGYEIDGYGGLWGQGTLVTVSS
VL: AQVLTQTPSPVSAVVGGTVSISCQASQSVYNNNNLSWYQQKPGQPPKLLIYDASKLASGVPSRFKGSGSGTQFTLTISGVQCDDAATYYCLGGYYSSGWYFAFGGGTKVVVKR
[13]
  Kd: 61 nM
  koff: 0.035 s⁻¹
  kon: 570000 M⁻¹ s⁻¹

B2: 6294 mouse Fab (Fab, V domains shown)
VH: EVQLVESGAELARPGASVKMSCKASGYTFTSYTMHWVKQRPGQGLEWIGYINPSSGYTEYNQKFKDKTTLTADKSSSTAYLQLSSLTSEDSAVYYCARVGDGFYPSWLAYWGQGTLVTVSS
VL: DIQMTQSPKFLLVSAGDRVTITCKASQSVRNDVAWYQQKPGQSPKLLIFYASKRYTGVPDRFTGSGYGTDFTFTISTVQAEDLAVYFCQQDYSSPTTFGGGTKLEIK
[14]
  Kd: 0.085 nM
  koff: 0.00022 s⁻¹
  kon: 2.6e+06 M⁻¹ s⁻¹
